Source: patent US7250492B2, “Compositions and methods for inhibition of cancer invasion and angiogenesis” (The Research Foundation at State University of New York, priority 2000, dated 2007)

Legend:
DPPIV = DPPIV (Homo sapiens, UniProt P27487); conditions: reversible DPPIV inhibitor; cited from earlier work
seprase = biological target: T1, seprase (Homo sapiens, UniProt Q12884); conditions: cited from earlier work
T1 sequence (Q12884 1-760): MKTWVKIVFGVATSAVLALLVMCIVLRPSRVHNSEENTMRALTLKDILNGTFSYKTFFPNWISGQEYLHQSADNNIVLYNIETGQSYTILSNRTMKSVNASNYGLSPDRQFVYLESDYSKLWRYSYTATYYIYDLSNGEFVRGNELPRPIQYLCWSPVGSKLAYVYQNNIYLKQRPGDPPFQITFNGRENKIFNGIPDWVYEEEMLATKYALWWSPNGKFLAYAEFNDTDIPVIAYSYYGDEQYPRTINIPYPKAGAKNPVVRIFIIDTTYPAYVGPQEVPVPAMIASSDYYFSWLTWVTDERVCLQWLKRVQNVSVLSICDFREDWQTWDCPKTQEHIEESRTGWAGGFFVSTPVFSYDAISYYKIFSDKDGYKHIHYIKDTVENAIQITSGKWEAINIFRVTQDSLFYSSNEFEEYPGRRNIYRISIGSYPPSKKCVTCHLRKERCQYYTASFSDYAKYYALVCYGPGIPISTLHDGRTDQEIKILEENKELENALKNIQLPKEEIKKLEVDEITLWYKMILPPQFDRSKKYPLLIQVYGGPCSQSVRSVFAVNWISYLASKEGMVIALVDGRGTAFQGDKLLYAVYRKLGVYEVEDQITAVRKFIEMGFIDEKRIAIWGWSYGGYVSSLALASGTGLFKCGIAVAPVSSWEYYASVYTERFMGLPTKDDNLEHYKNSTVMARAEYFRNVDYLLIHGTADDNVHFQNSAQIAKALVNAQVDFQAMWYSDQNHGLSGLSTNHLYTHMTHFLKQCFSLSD

seprase-DPPIV complex = biological target: T2, seprase-DPPIV complex (Homo sapiens, UniProt P27487+Q12884); test: collagen-degrading activity: peptide release from biotinylated type I collagen gel; assay type: biochemical; conditions: 37° C., 8 h; mAb 5 μg/ml, AEBSF 20 μM, CG1847 50 nM
T2 construct: The seprase-DPPIV complex was isolated from WI38 RIPA extracts using mAbs D28; endogenous in cells; host or cells: WI38 human fibroblasts (RIPA extract, immuno-isolated on mAb D28 or E3 beads)
T2 sequence (P27487 whole entry, one chain of several): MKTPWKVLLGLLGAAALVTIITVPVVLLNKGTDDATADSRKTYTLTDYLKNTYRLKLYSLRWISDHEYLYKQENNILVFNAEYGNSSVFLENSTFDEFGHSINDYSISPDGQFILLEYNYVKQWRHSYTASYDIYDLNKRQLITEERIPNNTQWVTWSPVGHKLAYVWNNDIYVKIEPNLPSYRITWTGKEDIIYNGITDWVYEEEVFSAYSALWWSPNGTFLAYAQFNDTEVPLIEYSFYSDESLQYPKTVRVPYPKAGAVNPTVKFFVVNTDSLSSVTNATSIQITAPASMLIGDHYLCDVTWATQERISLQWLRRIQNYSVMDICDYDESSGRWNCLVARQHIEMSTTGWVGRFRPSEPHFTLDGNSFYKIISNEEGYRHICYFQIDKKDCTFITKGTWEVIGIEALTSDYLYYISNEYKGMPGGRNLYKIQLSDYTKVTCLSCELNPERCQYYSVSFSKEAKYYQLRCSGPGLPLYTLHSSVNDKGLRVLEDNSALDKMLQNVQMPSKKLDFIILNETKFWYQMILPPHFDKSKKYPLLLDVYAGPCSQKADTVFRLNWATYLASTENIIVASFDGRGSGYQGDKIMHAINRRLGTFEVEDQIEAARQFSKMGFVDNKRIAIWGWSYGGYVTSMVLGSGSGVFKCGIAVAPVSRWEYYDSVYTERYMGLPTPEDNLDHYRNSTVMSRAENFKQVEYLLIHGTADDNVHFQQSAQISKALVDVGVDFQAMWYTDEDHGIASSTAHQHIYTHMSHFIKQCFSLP
Protocol: FIG. 9. Collagen-degrading activity of the seprase-DPPIV complex. Collagen-degrading activities of the protease complex and purified DPPIV were determined by the release of peptide fragments from biotinylated type I collagen gel in the presence of these enzymes. The seprase-DPPIV complex was isolated from WI38 RIPA extracts using mAbs D28 (lane marked Ip Seprase) and E3 (lane marked Ip DPPIV) beads, seprase from LOX WGA fraction using mAb D28 (lane marked Ip Seprase*), MMP-2 from media conditioned by MMP-2 COS cell transfectants (lane marked MMP-2), and proteins associated with β3 integrin were from WI38 RIPA extracts using HB242 (lane marked Ip β3 integrin). All enzymes, including the protease complex, purified seprase, MMP-2, and proteins associated with β1 or β3 integrin were applied at the concentration of 50 ng/ml. […]
Collagen-degrading activity of isolated DPPIV or seprase-DPPIV complex was determined by the release of peptide fragments from biotinylated type I collagen gel by immuno-isolated proteases or the protease complex. […]

DPPIV, sequence (P27487 whole entry, species assumed): as the sequence (P27487 whole entry, one chain of several) above

Row | Structure (SMILES) | Ki (DPPIV) [nM] | seprase gelatinase activity (seprase) | inhibition of seprase activity (seprase) | degradation of collagen by the seprase-DPPIV complex (seprase-DPPIV complex)
1 | NC(CCC(=O)NOC(=O)c1ccccc1)C(=O)N1CCCC1 (stereo not shown) [H-Glu(NHO-Bz)-Pyrr] | 500 | – | – | –
2 | N=C(N)c1ccc(CS(=O)(=O)F)cc1 [APSF] | – | completely blocked | – | –
3 | CCN1C(=O)C=CC1=O [NEM] | – | – | inhibited | –
4 | O=S(=O)(F)Cc1ccccc1 [PMSF] | – | completely blocked | inhibits | –
5 | NCCc1ccc(S(=O)(=O)F)cc1 [AEBSF] | – | completely blocked | – | blocked
